US20250099530A1, “COMPOUND FOR USE IN PREVENTING AND/OR TREATING AN INFECTION CAUSED BY SARS-COV-2” (priority 2022, published 2025)
Entries after “also recorded” stand apart in the source; their conditions may differ.

Assays:
SARS-CoV-2 [1] = test: COVID-19 golden Syrian hamster model; format: in vivo; settings: for viral replication decrease in the lungs compared to vehicle / viral load and viral replication in the lungs: 10 mg/kg IP on Day 0 (t+1 h) and Day 1, lungs at 2 dpi; for viral load and viral replication in the lungs: versus untreated groups; for clinical scores and body weight change vs Day 0: 10 mg/kg IP on Day 0 (t+1 h) and Day 1, versus infected untreated group
SARS-CoV-2 [2] = test: Intracellular qRT-PCR of SARS-CoV-2 S, N and NSP6 genes in infected cells, full treatment; format: cell-based, SARS-CoV-2 strain BetaCoV/France/IDF0372/2020; settings: 72 h post-infection, normalized to GAPDH
SARS-CoV-2 [3] = test: Antiviral activity, full treatment: Spike staining by flow cytometry and western blot of S and N proteins in infected cells; format: cell-based, SARS-CoV-2 strain BetaCoV/France/IDF0372/2020
Description: A) Vero E6/TMPRSS2 cells non infected or infected with the SARS-CoV-2 at MOI 0.05 were incubated with different concentrations of QVDM-OPh (10, 25, 50, 100 μM), Vx765 (25 μM) or Remdesivir (10 μM) for 1 h, before the infection. Afterwards, the cells were cultured with drug-containing medium until the end of the experiment (Full treatment) without removing the virus from the culture. After 72 h post-infection, cells were collected and stained for mortality and infection rate analysis. The % of infection is represented in each plot of analysis.
B) Results represent the % of infection detected by the Spike protein staining in the different infected and treated cells compared to the infected untreated group. Results represent mean+/−SD of 4 independent experiments with 3 independent points for each condition separately. Statistical significance was assessed applying One-way ANOVA test followed by Dunnett's post-hoc test using GraphPad Prism software (GraphPad Software Inc., USA). (****P<0.0001).
A-B) Vero E6/TMRPSS2 cells were pre-treated with QVDM-OPh peptide or Remdesivir at the indicated concentrations for 1 h, before the infection with the virus at MOI=0.05. Afterwards, the cells were cultured with drug-containing medium until the end of the experiment (Full treatment). A well with non-infected cells was performed as a negative control of the infection. At 72 h post-infection, cells were lysed by RIPA buffer and western blot analysis was performed to detect the expression of the Spike protein (S), the full length and S1 domain, and the Nucleocapsid protein (N). GAPDH was used as loading control. Results represent mean±SD, from 4 independent experiments with 3 independent points per condition.
To evaluate the toxicity of the QVDM-OPh on Vero E6 Cells and the antiviral efficacy, the percentage of mortality and the percentage of infected cells were measured by flow cytometry. Cells were cultured overnight in 24-well cell-culture petri-dish with a density of 75×10^4 cells/well. The next day, cells were pretreated or not for 1 h with the different doses of the indicated QVDM-OPh, Vx765 or Remdesivir at different concentrations. Then, the virus was subsequently added at MOI 0.05 to allow infection for 2 h in 250 μl/well. Afterwards, complete media was added to cell culture to a final volume of 500 μl/well. Drugs were added each day at same concentration to cell culture. At 72 h post-infection, the cell supernatant was collected and frozen immediately at −80° C. for viral extraction and qRT-PCR amplification. The cells were collected and a part thereof was used to flow cytometry analysis to measure the rate of infection using an intracellular staining against Spike protein (SARS-CoV-2 Spike Protein-Alexa 647, Cat no. 51-6490-82, eBioscience) and a Cytofix/cytoperm fixation permeabilization kit (Cat no. 554714, BD) according to the manufacturer's instructions. Toxicity was analysed using Viability 405/452 Fixable Dye (Cat no. 130-109-814, from Miltenyi Biotec) according to the manufacturer's instructions. […] After the staining, the cells were fixed with 2% Paraformaldehyde (FPA) and then analyzed on a Fortessa Flow Cytometer. 30 000 events were recorded for each condition in triplicate. […] The other part of the cells was lysed in RIPA lysis buffer (Invitrogen, Cat no. 10230544) containing protease (Roche) and phosphatase inhibitors (Invitrogen) for further quantification and immunoblotting analysis, or in LBP buffer for RNA purification and RT-qPCR analysis. […]

SARS-CoV-2 [4] = test: Virus yield in infected cell supernatants by qRT-PCR (N and NSP6 genes); format: cell-based, SARS-CoV-2 strain BetaCoV/France/IDF0372/2020
caspase = settings: cited from earlier work
HIV = settings: cited from earlier work
SARS-CoV-2 [5] = settings: cited from earlier work
SIV = settings: SIV-infected rhesus macaques; cited from earlier work
[6] = Severe acute respiratory syndrome coronavirus 2, 72 h, read-out: inhibition of the viral replication
[7] = full treatment, 72 h post-infection

SMILES | viral replication decrease in the lungs compared to vehicle (SARS-CoV-2 [1]) | viral load and viral replication in the lungs (SARS-CoV-2 [1]) | clinical scores and body weight change vs Day 0 (SARS-CoV-2 [1]) | relative expression of the Spike, Nucleocapsid and NSP6 genes inside the cells (SARS-CoV-2 [2]) | control of SARS-CoV-2 infection in vitro (SARS-CoV-2 [3]; 25 μM and 50 μM) | inhibition at 10 µM (SARS-CoV-2 [3]; [6]) | inhibition at 25 µM (SARS-CoV-2 [3]; [6]) | inhibition at 50 µM (SARS-CoV-2 [3]; [6]) | reduction of viral replication compared with Remdesivir (SARS-CoV-2 [3]; [7]) | SARS-CoV-2 in the supernatant (N and NSP6 gene qRT-PCR) (SARS-CoV-2 [4]; [7]) | inhibition of secretion/production of the virus from the cell to the media, compared with QVD-OPh (SARS-CoV-2 [4]; identical concentration, full treatment and post-entry (FIGS. 5 and 9)) | caspase inhibitory activity (caspase) | HIV viral replication (HIV) | toxicity (Vero E6/TMPRSS2 cells; 25 μM and 50 μM) | toxicity effect on Vero E6/TMPRSS2 cells (Vero E6/TMPRSS2 cells; different concentrations (25, 50, 100 μM each day), cells infected or not at MOI 0.05, 72 h post-infection) | control of an in vitro infection caused by SARS-CoV-2 (SARS-CoV-2 [5]) | toxicity (SARS-CoV-2 [5]; in vitro) | AIDS disease progression (SIV)
COC(=O)CC(NC(=O)C(NC(=O)c1ccc2ccccc2n1)C(C)C)C(=O)COc1c(F)cccc1F (stereo not shown) [QVDM-OPh] | 70% | significant reduction | encouraging results | reduce significantly | highly effective | ~50% | ~70% | ~99% | comparable | significantly reduce | more efficiently than QVD-OPh | pan-caspase inhibitor | same anti-viral effect | without any toxicity | no toxicity effect | – | – | –
CC(C)C(NC(=O)c1ccc2ccccc2n1)C(=O)NC(CCC(=O)O)C(=O)COc1c(F)cccc1F (stereo not shown) [QVE-OPh] | 52% | significant reduction | encouraging results | – | – | – | – | – | – | – | – | no caspase inhibitory activity | same anti-viral effect | – | – | highly effective | without any toxicity | –
CC(C)C(NC(=O)c1ccc2ccccc2n1)C(=O)NC(CC(=O)O)C(=O)COc1c(F)cccc1F (stereo not shown) [QVD-OPh] | – | – | – | – | – | – | – | – | – | – | – | broad caspase inhibitor | inhibits also the viral replication; also recorded: same anti-viral effect | – | – | – | – | AIDS disease progression is prevented
